Assay results published in patent US8802597B2, “Herbicidal pyrimidines” (E I du Pont de Nemours and Company, priority 2003, dated 2014).

Experiments:
Assay in all cases: Test C pre/postemergence
Format in all cases: in vivo
Settings in all cases: Preemergence
[1] = test system: lambsquarters (Chenopodium album)
Procedure, shortened: (§1)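 Applications: preemergence onto seeded soil and postemergence onto 1- to 4-leaf seedlings, compound carried in non-phytotoxic solvent plus surfactant. Kept in greenhouse 12 to 14 days. Scored visually relative to untreated controls, 0 (no effect) to 100 (complete control).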

[2] = test system: velvetleaf (Abutilon theophrasti)
Procedure, shortened: as §1

[3] = test system: johnsongrass (Sorghum halepense)
Procedure, shortened: as §1

[4] = test system: cocklebur (Xanthium strumarium)
Procedure, shortened: as §1

[5] = test system: common (oilseed) sunflower (Helianthus annuus)
Procedure, shortened: as §1

[6] = test system: eastern black nightshade (Solanum ptycanthum)
Procedure, shortened: as §1

[7] = test system: goosegrass (Eleusine indica)
Procedure, shortened: as §1

soybean (Glycine max) = test system: soybean (Glycine max)
Procedure, shortened: as §1

[8] = test system: bermudagrass (Cynodon dactylon)
Procedure, shortened: as §1

[9] = test system: common ragweed (Ambrosia elatior)
Procedure, shortened: as §1

[10] = test system: pigweed (Amaranthus retroflexus)
Procedure, shortened: as §1

kochia (Kochia scoparia) = test system: kochia (Kochia scoparia)
Procedure, shortened: as §1

[11] = 31 g ai/ha, scale 0 to 100, 0 no effect, 100 complete control
[12] = 62 g ai/ha, scale 0 to 100, 0 no effect, 100 complete control

Compound: CCOC(=O)C(Cl)c1nc(C2CC2)nc(N)c1Br (centres unmarked) [Compound 31]
- Plant response rating, Lambsquarters [1, 11]: 0
- Plant response rating, Lambsquarters [1, 12]: 40
- Plant response rating, Lambsquarters ([1]; 125 g ai/ha, scale 0 to 100): 40
- Plant response rating, Lambsquarters ([1]; 250 g ai/ha, scale 0 to 100): 80
- Plant response rating, Velvetleaf [2, 11]: 0
- Plant response rating, Velvetleaf [2, 12]: 0
- Plant response rating, Velvetleaf ([2]; 125 g ai/ha, scale 0 to 100): 0
- Plant response rating, Velvetleaf ([2]; 250 g ai/ha, scale 0 to 100): 60
- Plant response rating, Johnsongrass [3, 11]: 0
- Plant response rating, Johnsongrass [3, 12]: 0
- Plant response rating, Johnsongrass ([3]; 125 g ai/ha, scale 0 to 100): 0
- Plant response rating, Johnsongrass ([3]; 250 g ai/ha, scale 0 to 100): 5
- Plant response rating, Cocklebur [4, 11]: 0
- Plant response rating, Cocklebur [4, 12]: 60
- Plant response rating, Cocklebur ([4]; 125 g ai/ha, scale 0 to 100): 75
- Plant response rating, Cocklebur ([4]; 250 g ai/ha, scale 0 to 100): 85
- Plant response rating, Sunflower [5, 11]: 0
- Plant response rating, Sunflower [5, 12]: 0
- Plant response rating, Sunflower ([5]; 125 g ai/ha, scale 0 to 100): 5
- Plant response rating, Sunflower ([5]; 250 g ai/ha, scale 0 to 100): 70
- Plant response rating, Nightshade [6, 11]: 0
- Plant response rating, Nightshade [6, 12]: 0
- Plant response rating, Nightshade ([6]; 125 g ai/ha, scale 0 to 100): 0
- Plant response rating, Goosegrass [7, 11]: 0
- Plant response rating, Goosegrass [7, 12]: 0
- Plant response rating, Goosegrass ([7]; 125 g ai/ha, scale 0 to 100): 0
- Plant response rating, Goosegrass ([7]; 250 g ai/ha, scale 0 to 100): 20
- Plant response rating, Soybean (soybean (Glycine max); [11]): 0
- Plant response rating, Soybean (soybean (Glycine max); [12]): 5
- Plant response rating, Soybean (soybean (Glycine max); 125 g ai/ha, scale 0 to 100): 15
- Plant response rating, Soybean (soybean (Glycine max); 250 g ai/ha, scale 0 to 100): 80
- Plant response rating, Bermudagrass [8, 11]: 0
- Plant response rating, Bermudagrass [8, 12]: 0
- Plant response rating, Bermudagrass ([8]; 125 g ai/ha, scale 0 to 100): 0
- Plant response rating, Bermudagrass ([8]; 250 g ai/ha, scale 0 to 100): 0
- Plant response rating, Ragweed [9, 11]: 5
- Plant response rating, Ragweed [9, 12]: 10
- Plant response rating, Ragweed ([9]; 125 g ai/ha, scale 0 to 100): 60
- Plant response rating, Ragweed ([9]; 250 g ai/ha, scale 0 to 100): 60
- Plant response rating, Pigweed [10, 11]: 10
- Plant response rating, Pigweed [10, 12]: 30
- Plant response rating, Pigweed ([10]; 125 g ai/ha, scale 0 to 100): 35
- Plant response rating, Pigweed ([10]; 250 g ai/ha, scale 0 to 100): 40
- Plant response rating, Kochia (kochia (Kochia scoparia); [11]): 0
- Plant response rating, Kochia (kochia (Kochia scoparia); [12]): 0
- Plant response rating, Kochia (kochia (Kochia scoparia); 125 g ai/ha, scale 0 to 100): 50
- Plant response rating, Kochia (kochia (Kochia scoparia); 250 g ai/ha, scale 0 to 100): 70
